Patent US12576099B2, “Ribose-modified cap analog and use thereof” (Beijing Youcare Kechuang Pharmaceutical Technology Co., Ltd., priority 2024, dated 2026)

Key:
BALB/C mice = experiment: In vivo imaging of Fluc-mRNA LNP expression in mice
Experimental: The LNP preparation containing 5 μg of cap analog-transcribed Fluc-mRNA was intramuscularly injected into female BALB/C mice aged 4 to 6 weeks and weighing 17 to 19 g. At specific time points after administration (6 hours, 12 hours, 24 hours, 48 hours, 96 hours, and 168 hours), the mice were intraperitoneally injected with fluorescence imaging substrate. The mice were then allowed to move freely for 5 minutes, followed by detection of the total radiation intensity of the protein expressed by LNP-carrying mRNA in the mice using an IVIS Spectrum small-animal in vivo imaging system (corresponding to the amount of protein expression).
In the in vivo imaging experiments in mice, the multiple of the total radiation intensity for each group of mice relative to the m6A group is shown in Table 8 (where the total radiation intensity is represented as the given value×10^8 p/s).

[1] = Characterization of lipid nanoparticles encapsulating Fluc-mRNA prepared from different cap structures; assay type: physicochemical; settings: for Particle size: LNP (YK-009/DSPC/cholesterol/DMG-PEG2000) with Fluc-mRNA transcribed using the named cap analog; for PDI: LNP with Fluc-mRNA transcribed using the named cap analog; for EE: encapsulation efficiency of LNP with Fluc-mRNA transcribed using the named cap analog
Experimental: Cationic lipid YK-009 (Beijing Youcare Kechuang Pharmaceutical Technology Co., Ltd.), DSPC (AVT (Shanghai) Pharmaceutical Technology Co., Ltd.), cholesterol (AVT (Shanghai) Pharmaceutical Technology Co., Ltd.), and DMG-PEG2000 were dissolved in ethanol at a molar ratio of 49:10:39.5:1.5, and the mRNA was diluted in 50 mM citrate buffer (pH=4). The ethanol lipid solution was mixed with the Fluc-mRNA aqueous solution prepared from different cap structures at a volume ratio of 1:3 using a microfluidic device at a flow rate of 10 mL/min to prepare LNPs at a weight ratio of total lipid to mRNA of approximately 15:1.
The resulting liposomes were diluted to 10-fold volume with PBS, and then ultrafiltered with a 300 KDa ultrafiltration tube to remove ethanol. The volume was then fixed to a certain volume with PBS. Finally, the LNPs were filtered through a 0.2 μm sterile filter to obtain an LNP preparation encapsulating Fluc-mRNA using YK-009/DSPC/cholesterol/DMG-PEG2000 (at a molar ratio of 49:10:39.5:1.5).
The particle size and polydispersity index (PDI) were determined by dynamic light scattering using a Malvern laser particle size analyzer. 10 μL of the liposome solution was taken, diluted to 1 mL with RNase-free deionized water, and added to a sample pool. Each sample was measured in triplicate. The measurement conditions were: a scattering angle of 90° and a temperature of 25° C. The encapsulation efficiency of LNPs was determined using the Quant-iT RiboGreen RNA Quantification Kit (Thermo Fisher Scientific, UK) according to the manufacturer's instructions.

T7 RNA polymerase = T7 RNA polymerase (Escherichia phage T7, UniProt P00573); experiment: In vitro transcription yield of mRNA using cap analogs; assay type: biochemical; settings: for Yield per unit template: in vitro transcription, 1 μg DNA template, 37° C., 2 hours
T7 RNA polymerase, sequence (P00573 whole entry): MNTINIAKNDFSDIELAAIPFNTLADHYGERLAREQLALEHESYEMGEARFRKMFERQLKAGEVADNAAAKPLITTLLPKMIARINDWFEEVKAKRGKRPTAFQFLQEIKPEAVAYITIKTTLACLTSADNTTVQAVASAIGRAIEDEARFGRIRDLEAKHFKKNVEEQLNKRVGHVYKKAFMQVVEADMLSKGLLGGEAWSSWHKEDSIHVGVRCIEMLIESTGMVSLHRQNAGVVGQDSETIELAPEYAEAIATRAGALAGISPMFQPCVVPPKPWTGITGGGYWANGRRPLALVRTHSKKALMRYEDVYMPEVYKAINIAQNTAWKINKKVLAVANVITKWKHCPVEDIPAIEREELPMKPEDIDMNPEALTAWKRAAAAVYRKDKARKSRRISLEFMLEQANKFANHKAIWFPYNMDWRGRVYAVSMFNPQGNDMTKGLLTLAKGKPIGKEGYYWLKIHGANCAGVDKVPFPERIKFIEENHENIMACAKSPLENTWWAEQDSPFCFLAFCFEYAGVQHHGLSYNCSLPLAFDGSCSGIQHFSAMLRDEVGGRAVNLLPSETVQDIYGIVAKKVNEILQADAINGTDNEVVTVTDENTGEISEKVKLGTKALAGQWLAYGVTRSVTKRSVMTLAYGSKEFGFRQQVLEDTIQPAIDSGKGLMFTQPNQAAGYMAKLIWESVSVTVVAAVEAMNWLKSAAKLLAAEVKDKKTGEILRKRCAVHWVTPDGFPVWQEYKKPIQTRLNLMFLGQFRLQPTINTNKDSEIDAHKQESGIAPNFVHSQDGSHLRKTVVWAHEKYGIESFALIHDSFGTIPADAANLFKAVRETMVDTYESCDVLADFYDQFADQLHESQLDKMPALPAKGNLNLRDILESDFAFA
Experimental: • (1) Capping synthesis using cap analogs
The plasmid was first linearized with plasmid linearizing enzyme, and then the linearized plasmid was purified. • (2) In vitro transcription and synthesis of mRNA
During the experiment, the volume of materials required for the system was first calculated, and then sample addition was conducted. The system was first added with sterile enzyme-free water, followed by the sequential addition of 10× buffer, NTPs, and cap analogs, mixed well, and gently centrifuged. Nuclease inhibitors, inorganic pyrophosphatase, T7RNA polymerase, and linearized DNA templates were then added thereto. The system was mixed well, gently centrifuged, and incubated at 37° C. After 2 hours of incubation, the system was added with 1 U of DNase I and incubated at 37° C. for another 30 minutes. The mRNA precipitate was then washed with 75% ethanol, and after the ethanol was briefly evaporated to dryness, the mRNA was redissolved in sterile enzyme-free water. • (3) The transcription product was purified, and the in vitro transcription yield of mRNA was recorded. • (4) The obtained mRNA was subjected to an annealing reaction with a probe.

DCP2 enzyme = target: T1, DCP2 enzyme (Schizosaccharomyces pombe, UniProt O13828); experiment: Decapping enzyme stability test; assay type: biochemical; settings: for Decapping rate (%) of DCP2 enzyme: 50 U mRNA decapping enzyme, 37° C., 45 minutes
T1 construct: purchased New England Biolabs
T1 sequence (O13828 1-243 limits assumed): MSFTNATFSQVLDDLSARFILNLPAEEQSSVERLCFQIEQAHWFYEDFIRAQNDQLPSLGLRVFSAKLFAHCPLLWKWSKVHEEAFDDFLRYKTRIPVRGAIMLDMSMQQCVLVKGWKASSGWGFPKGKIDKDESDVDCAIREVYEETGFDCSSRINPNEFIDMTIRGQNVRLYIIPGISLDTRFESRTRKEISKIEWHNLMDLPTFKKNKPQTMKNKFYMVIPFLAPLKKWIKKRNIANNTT
T1 sequence (Q9P805 1-127 partner): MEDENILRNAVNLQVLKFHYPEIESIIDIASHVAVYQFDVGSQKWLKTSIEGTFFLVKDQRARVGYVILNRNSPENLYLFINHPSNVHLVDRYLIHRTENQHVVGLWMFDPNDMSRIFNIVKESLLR
T1 sequence (Q10108 155-180 partner limits assumed): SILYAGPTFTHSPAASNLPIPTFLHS
Experimental: […] of RNA purified by polyacrylamide gel electrophoresis (PAGE) was subjected to an enzymatic reaction with 50 U of mRNA decapping enzyme (New England Biolabs) and 1×MDE buffer at 37° C. for 45 minutes. The enzymatic reactants were subjected to PAGE and stained with SYBR Green II (Lonza), followed by observation of the post-electrophoresis gel image on a Typhoon FLA 7000 (GE Healthcare) instrument. The electrophoresis band intensity ratio of RNA capping to RNA decapping was counted using ImageQuant (GE Healthcare) software, and the decapping rate of the decapping enzyme was calculated.

[2] = 6 h, 5 μg Fluc-mRNA LNP intramuscular, mice
[3] = 12 h, 5 μg Fluc-mRNA LNP intramuscular, mice
[4] = 24 h, 5 μg Fluc-mRNA LNP intramuscular, mice
[5] = 48 h, 5 μg Fluc-mRNA LNP intramuscular, mice
[6] = 96 h, 5 μg Fluc-mRNA LNP intramuscular, mice
[7] = 168 h, 5 μg Fluc-mRNA LNP intramuscular, mice

CO[C@@H]1[C@H](OP(=O)(O)OC[C@H]2O[C@@H](n3cnc4c(=O)[nH]c(N)nc43)[C@H](O)[C@@H]2O)[C@@H](COP(=O)(O)OP(=O)(O)OP(=O)(O)OC[C@H]2OC([n+]3cn(C)c4c(=O)[nH]c(N)nc43)[C@H](O)[C@@H](O)[C@@H]2O)O[C@H]1n1cnc2c(N)ncnc21 (stereo partly shown) [YK-CAP-101]
Multiple of total radiation intensity relative to m6A (BALB/C mice; 6 h): 0.8
Total radiation intensity (BALB/C mice; [2]): 1.81 ×108 p/s
Multiple of total radiation intensity relative to m6A (BALB/C mice; 12 h): 0.5
Total radiation intensity (BALB/C mice; [3]): 0.96 ×108 p/s
Multiple of total radiation intensity relative to m6A (BALB/C mice; 24 h): 0.5
Total radiation intensity (BALB/C mice; [4]): 0.36 ×108 p/s
Multiple of total radiation intensity relative to m6A (BALB/C mice; 48 h): 0.4
Total radiation intensity (BALB/C mice; [5]): 0.19 ×108 p/s
Multiple of total radiation intensity relative to m6A (BALB/C mice; 96 h): 1.5
Total radiation intensity (BALB/C mice; [6]): 0.04 ×108 p/s
Total radiation intensity (BALB/C mice; [7]): 0.02 ×108 p/s
Total radiation intensity (BALB/C mice; at 12 hours): 0.96 ×10^8 p/s
Total radiation intensity (BALB/C mice; at 48 hours): 0.19 ×10^8 p/s
Particle size [1]: 75.45 nm
PDI [1]: 0.043
EE [1]: 93.4%
Yield per unit template (T7 RNA polymerase): 32.5 µg
Increase relative to 5227 (in vitro transcription yield) (T7 RNA polymerase): −75.8%
Decapping rate (%) of DCP2 enzyme (DCP2 enzyme): 32.4%
Decrease relative to N-7113 (decapping rate) (DCP2 enzyme): 11.4%

CO[C@@H]1[C@H](OP(=O)(O)OC[C@H]2O[C@@H](n3cnc4c(=O)[nH]c(N)nc43)[C@H](O)[C@@H]2O)[C@@H](COP(=O)(O)OP(=O)(O)OP(=O)(O)OC[C@H]2O[C@@H]([n+]3cn(C)c4c(=O)[nH]c(N)nc43)[C@H](O)[C@@H]2C(F)F)O[C@H]1n1cnc2c(N)ncnc21 [YK-CAP-110]
Multiple of total radiation intensity relative to m6A (BALB/C mice; 6 h): 4.1
Total radiation intensity (BALB/C mice; [2]): 9.52 ×108 p/s
Multiple of total radiation intensity relative to m6A (BALB/C mice; 12 h): 5.0
Total radiation intensity (BALB/C mice; [3]): 10.55 ×108 p/s
Multiple of total radiation intensity relative to m6A (BALB/C mice; 24 h): 4.6
Total radiation intensity (BALB/C mice; [4]): 3.04 ×108 p/s
Multiple of total radiation intensity relative to m6A (BALB/C mice; 48 h): 4.4
Total radiation intensity (BALB/C mice; [5]): 2.30 ×108 p/s
Multiple of total radiation intensity relative to m6A (BALB/C mice; 96 h): 1.0
Total radiation intensity (BALB/C mice; [6]): 0.27 ×108 p/s
Total radiation intensity (BALB/C mice; [7]): 0.04 ×108 p/s
Total radiation intensity (BALB/C mice; at 12 hours): 10.55 ×10^8 p/s
Total radiation intensity, times that of N-7113 (BALB/C mice; at 12 hours): 2.4 times
Total radiation intensity, times that of YK-CAP-101 (BALB/C mice; at 12 hours): 11.0 times
Total radiation intensity (BALB/C mice; at 48 hours): 2.30 ×10^8 p/s
Total radiation intensity, times that of N-7113 (BALB/C mice; at 48 hours): 4.7 times
Total radiation intensity, times that of YK-CAP-101 (BALB/C mice; at 48 hours): 12.1 times
Particle size [1]: 69.64 nm
PDI [1]: 0.033
EE [1]: 97.7%
Yield per unit template (T7 RNA polymerase): 172.1 µg
Increase relative to 5227 (in vitro transcription yield) (T7 RNA polymerase): 28.2%
Decapping rate (%) of DCP2 enzyme (DCP2 enzyme): 10.2%
Decapping rate lower than that of HN3002 (DCP2 enzyme; relative to HN3002): 13.1%
Decrease relative to N-7113 (decapping rate) (DCP2 enzyme): 33.6%
Decapping rate lower than that of YK-CAP-101 (DCP2 enzyme; relative to YK-CAP-101): 22.2%
Decapping rate lower than that of YK-CAP-102 (DCP2 enzyme; relative to YK-CAP-102): 31.0%
Decapping rate lower than that of YK-CAP-103 (DCP2 enzyme; relative to YK-CAP-103): 26.3%
Decapping rate lower than that of YK-CAP-104 (DCP2 enzyme; relative to YK-CAP-104): 35.9%
Decapping rate lower than that of YK-CAP-105 (DCP2 enzyme; relative to YK-CAP-105): 23.7%
Decapping rate lower than that of compound 14 (DCP2 enzyme; relative to compound 14): 16.6%
Decapping rate lower than that of m6A (DCP2 enzyme; relative to m6A): 23.6%

CO[C@@H]1[C@H](OP(=O)(O)OC[C@H]2O[C@@H](n3cnc4c(=O)[nH]c(N)nc43)[C@H](O)[C@@H]2O)[C@@H](COP(=O)(O)OP(=O)(O)OP(=O)(O)OC[C@@]2(CF)O[C@@H]([n+]3cn(C)c4c(=O)[nH]c(N)nc43)[C@H](O)[C@@H]2O)O[C@H]1n1cnc2c(N)ncnc21 [YK-CAP-118]
Multiple of total radiation intensity relative to m6A (BALB/C mice; 6 h): 3.0
Total radiation intensity (BALB/C mice; [2]): 7.06 ×108 p/s
Multiple of total radiation intensity relative to m6A (BALB/C mice; 12 h): 3.0
Total radiation intensity (BALB/C mice; [3]): 6.28 ×108 p/s
Multiple of total radiation intensity relative to m6A (BALB/C mice; 24 h): 3.1
Total radiation intensity (BALB/C mice; [4]): 2.03 ×108 p/s
Multiple of total radiation intensity relative to m6A (BALB/C mice; 48 h): 2.6
Total radiation intensity (BALB/C mice; [5]): 1.33 ×108 p/s
Multiple of total radiation intensity relative to m6A (BALB/C mice; 96 h): 1.2
Total radiation intensity (BALB/C mice; [6]): 0.35 ×108 p/s
Total radiation intensity (BALB/C mice; [7]): 0.02 ×108 p/s
Particle size [1]: 75.84 nm
PDI [1]: 0.055
EE [1]: 97.2%
Yield per unit template (T7 RNA polymerase): 172.2 µg
Increase relative to 5227 (in vitro transcription yield) (T7 RNA polymerase): 28.3%
Decapping rate (%) of DCP2 enzyme (DCP2 enzyme): 11.9%
Decrease relative to N-7113 (decapping rate) (DCP2 enzyme): 31.9%

CO[C@@H]1[C@H](OP(=O)(O)OC[C@H]2O[C@@H](n3cnc4c(=O)[nH]c(N)nc43)[C@H](O)[C@@H]2O)[C@@H](COP(=O)(O)OP(=O)(O)OP(=O)(O)OC[C@@]2(C(F)F)O[C@@H]([n+]3cn(C)c4c(=O)[nH]c(N)nc43)[C@H](O)[C@@H]2O)O[C@H]1n1cnc2c(N)ncnc21 [YK-CAP-119]
Multiple of total radiation intensity relative to m6A (BALB/C mice; 6 h): 3.2
Total radiation intensity (BALB/C mice; [2]): 7.47 ×108 p/s
Multiple of total radiation intensity relative to m6A (BALB/C mice; 12 h): 3.1
Total radiation intensity (BALB/C mice; [3]): 6.65 ×108 p/s
Multiple of total radiation intensity relative to m6A (BALB/C mice; 24 h): 3.3
Total radiation intensity (BALB/C mice; [4]): 2.15 ×108 p/s
Multiple of total radiation intensity relative to m6A (BALB/C mice; 48 h): 2.4
Total radiation intensity (BALB/C mice; [5]): 1.26 ×108 p/s
Multiple of total radiation intensity relative to m6A (BALB/C mice; 96 h): 1.3
Total radiation intensity (BALB/C mice; [6]): 0.25 ×108 p/s
Total radiation intensity (BALB/C mice; [7]): 0.02 ×108 p/s
Particle size [1]: 82.45 nm
PDI [1]: 0.057
EE [1]: 94.6%
Yield per unit template (T7 RNA polymerase): 154.2 µg
Increase relative to 5227 (in vitro transcription yield) (T7 RNA polymerase): 14.9%
Decapping rate (%) of DCP2 enzyme (DCP2 enzyme): 11.4%
Decrease relative to N-7113 (decapping rate) (DCP2 enzyme): 32.4%
